In US11725000B2, “Apoptosis inhibitors” (National Institute of Biological Sciences, Beijing, priority 2017, dated 2023):

These compounds were tested on U2OS_Bim cells (assay: Apoptosis inhibition assay (Bim-induced apoptosis, cell viability by ATP level)). Settings: U2OS_Bim cells; estimated (*Est.) / preliminary results; numbering of Tables 4a/4b; read-out: EC50.
Type: cell-based
How it was run: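 Apoptosis was triggered by doxycycline (0.1 μg/mL) induction of Bim, one hour after compound addition to U2OS_Bim cells. Survival was measured after 24 h from cellular ATP (CellTiter-Glo), relative to DMSO, with zVAD at 20 μM as rescue control. Data are duplicate means, some estimated from preliminary results.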
Compound `Cc1cc(-c2cc(F)c(=O)n(Cc3ccc4c(c3)OCO4)c2)nc(S(=O)(=O)CCC(OCc2ccncc2)c2ccccc2)n1` (stereo not drawn) [Compound 401] has an EC50 of 0.001 to 1 µM. For `Cc1cc(-c2cc(F)c(=O)n(Cc3ccc4c(c3)OCCN4C)c2)nc(S(=O)(=O)CCC(OCc2ccccc2F)c2ccccc2)n1` (stereo not drawn) [Compound 357], the EC50 was 0.001 to 1 µM. `Cc1cc(-c2cc(F)c(=O)n(Cc3ccc4c(c3)CCCO4)c2)nc(S(=O)(=O)CCC(OCc2ccccc2F)c2ccccc2)n1` (stereo not drawn) [Compound 355] showed an EC50 of 0.001 to 1 µM. In the case of `Cc1cc(-c2cc(F)c(=O)n(Cc3ccc4c(c3)N(C)CCO4)c2)nc(S(=O)(=O)CCC(OCc2ccccc2F)c2ccccc2)n1` (stereo not drawn) [Compound 356], the EC50 is reported as 0.001 to 1 µM. Work on `Cc1cc(-c2cc(F)c(=O)n(Cc3ccc4[nH]c(=O)[nH]c4c3)c2)nc(S(=O)(=O)CCC(OCc2ccccc2F)c2ccccc2)n1` (stereo not drawn) [Compound 341] yielded an EC50 of 0.001 to 1 µM. `Cc1cc(-c2cc(F)c(=O)n(Cc3ccc4c(c3)CC(=O)N4C)c2)nc(S(=O)(=O)CCC(OCc2ccccc2F)c2ccccc2)n1` (stereo not drawn) [Compound 351] showed an EC50 of 0.001 to 1 µM. For `Cc1cc(-c2cc(F)c(=O)n(Cc3ccc4nnn(C)c4c3)c2)nc(S(=O)(=O)CCCN(c2ccccc2)C2CCC2)n1` [Compound 379], the EC50 was 0.001 to 1 µM. With `Cc1cc(-c2cc(F)c(=O)n(Cc3ccc4c(c3)OCO4)c2)nc(S(=O)(=O)CCC(OCc2ccccc2F)c2ccc3ncoc3c2)n1` (stereo not drawn) [Compound 395] the EC50 was 0.001 to 1 µM. In the case of `Cc1cc(-c2cc(F)c(=O)n(Cc3ccc4c(c3)OCO4)c2)nc(S(=O)(=O)CCC(OCc2ccccc2F)c2ccccn2)n1` (stereo not drawn) [Compound 383], the EC50 is reported as 0.001 to 1 µM. `Cc1cc(-c2cc(F)c(=O)n(Cc3ccc4c(c3)OCO4)c2)nc(S(=O)(=O)CCCC(=O)N(C(C)(C)C)C(C)(C)C)n1` [Compound 382] gave an EC50 of 0.001 to 1 µM.

Same assay, conditions: U2OS_Bim cells; estimated based on preliminary results; numbering of Tables 4a/4b; read-out: EC50
For `COc1ccc(Cn2cc(-c3cc(C(F)(F)F)nc(S(=O)(=O)CN(C)C)n3)ccc2=O)cc1OC` [Compound 199], the EC50 was less than 10 µM. `C[S+]([O-])c1nc(-c2ccc(=O)n(Cc3ccc4cccnc4c3)c2)cc(C(F)(F)F)n1` (stereo not drawn) [Compound 253] was tested, and the EC50 was less than 10 µM. For `COc1ccc(Cn2cc(-c3cc(C(F)(F)F)nc([S+]([O-])CN4CCCCC4)n3)ccc2=O)cc1OC` (stereo not drawn) [Compound 197], the EC50 was less than 10 µM. With `CS(=O)(=O)c1nc(-c2ccc(=O)n(Cc3ccc4cnccc4c3)c2)cc(C(F)(F)F)n1` [Compound 248] the EC50 was less than 10 µM. Compound `COc1ccc(Cn2cc(-c3cc(C(F)(F)F)nc([S+]([O-])Cn4ncnn4)n3)ccc2=O)cc1OC` (stereo not drawn) [Compound 193] has an EC50 of less than 10 µM. Work on `CS(=O)(=O)c1nc(-c2ccc(=O)n(Cc3ccc4nccnc4c3)c2)cc(C(F)(F)F)n1` [Compound 244] yielded an EC50 of less than 10 µM. `C[S+]([O-])c1nc(-c2ccc(=O)n(CC3=Cc4ccccc4C3)c2)cc(C(F)(F)F)n1` (stereo not drawn) [Compound 255] was tested, and the EC50 was less than 10 µM. In the case of `COc1ccc(Cn2cc(-c3cc(C(F)(F)F)nc(S(=O)(=O)CN4CCCCC4)n3)ccc2=O)cc1OC` [Compound 196], the EC50 is reported as less than 10 µM.

Same assay, conditions: U2OS_Bim cells; means of duplicates; numbering of Tables 4a/4b; read-out: EC50
`COc1ccc(Cn2cc(-c3cc(C(F)F)nc([S+](C)[O-])n3)ccc2=O)cc1F` (stereo not drawn) [Compound 168, 5-(6-(difluoromethyl)-2-(methylsulfinyl)pyrimidin-4-yl)-1-(3-fluoro-4-methoxybenzyl)pyridin-2 (1H)-one] showed an EC50 of 0.001 to 1 µM. `COc1ccc(Cn2cc(-c3cc(C)nc(S(=O)(=O)CCC(C)=O)n3)cc(F)c2=O)cc1F` [Compound 303, 3-fluoro-1-(3-fluoro-4-methoxybenzyl)-5-(6-methyl-2-((3-oxobutyl)sulfonyl)pyrimidin-4-yl)pyridin-2 (1H)-one] showed an EC50 of less than 100 µM. In the case of `COc1cc(Cn2cc(-c3cc(C)nc(S(=O)(=O)CCC(OCc4ccccc4F)c4ccccc4)n3)cc(F)c2=O)ccn1` (stereo not drawn) [Compound 321, 3-fluoro-5-(2-(3-(2-fluorobenzyloxy)-3-phenylpropylsulfonyl)-6-methylpyrimidin-4-yl)-1-((2-methoxypyridin-4-yl)methyl)pyridin-2 (1H)-one], the EC50 is reported as 0.001 to 1 µM. For `COc1ccc(Cn2cc(-c3cc(C(F)(F)F)nc(S(C)(=O)=O)n3)ccc2=O)c(Cl)c1` [Compound 126, 1-(2-chloro-4-methoxybenzyl)-5-(2-(methylsulfonyl)-6-(trifluoromethyl)pyrimidin-4-yl)pyridin-2 (1H)-one], the EC50 was 0.001 to 1 µM. `O=c1c(F)cc(-c2cc(CF)nc(S(=O)(=O)CCC(OCc3ccccc3F)c3ccccc3)n2)cn1Cc1ccc2c(c1)OCO2` (stereo not drawn) [Compound 335, 1-(benzo[d][1,3]dioxol-5-ylmethyl)-3-fluoro-5-(2-((3-((2-fluorobenzyl)oxy)-3-phenylpropyl)sulfonyl)-6-(fluoromethyl)pyrimidin-4-yl)pyridin-2 (1H)-one] gave an EC50 of 0.001 to 1 µM. `COc1ccc(Cn2cc(-c3cc(CF)nc(S(=O)(=O)CCC(OCc4ccccc4)c4ccccc4)n3)ccc2=O)cc1OC` (stereo not drawn) [Compound 282, 5-(2-((3-(benzyloxy)-3-phenylpropyl)sulfonyl)-6-(fluoromethyl)pyrimidin-4-yl)-1-(3,4-dimethoxybenzyl)pyridin-2 (1H)-one] showed an EC50 of 0.001 to 1 µM. For `Cc1cc(-c2cc(F)c(=O)n(CC3CCOCC3)c2)nc(S(=O)(=O)CCC(OCc2ccc(F)cc2F)c2ccccc2)n1` (stereo not drawn) [Compound 314, 5-(2-(3-(2,4-difluorobenzyloxy)-3-phenylpropylsulfonyl)-6-methylpyrimidin-4-yl)-3-fluoro-1-((tetrahydro-2H-pyran-4-yl)methyl)pyridin-2 (1H)-one], the EC50 was 0.001 to 1 µM. Work on `CS(=O)(=O)c1nc(-c2ccc(=O)n(Cc3ccc(Cl)cc3)c2)cc(C(F)(F)F)n1` [Compound 106, 1-(4-chlorobenzyl)-5-(2-(methylsulfonyl)-6-(trifluoromethyl)pyrimidin-4-yl)pyridin-2 (1H)-one] yielded an EC50 of 0.001 to 1 µM. `COc1ccc(Cn2ccc(-c3cc(C(F)(F)F)nc([S+](C)[O-])n3)c2)cc1` (stereo not drawn) [Compound 92, 4-(1-(4-methoxybenzyl)-1H-pyrrol-3-yl)-2-(methylsulfinyl)-6-(trifluoromethyl)pyrimidine] gave an EC50 of less than 100 µM. `C[S+]([O-])c1nc(-c2ccc(=O)n(Cc3ccc(OC(F)(F)F)cc3)c2)cc(C(F)(F)F)n1` (stereo not drawn) [Compound 116, 5-(2-(methylsulfinyl)-6-(trifluoromethyl)pyrimidin-4-yl)-1-(4-(trifluoromethoxy)benzyl)pyridin-2 (1H)-one] showed an EC50 of 1 to 10 µM. For `COC(=O)c1ccc(-c2cc(C(F)(F)F)nc(S(C)(=O)=O)n2)cc1` [Compound 61, methyl 4-(2-(methylsulfonyl)-6-(trifluoromethyl)pyrimidin-4-yl)benzoate], the EC50 was less than 100 µM. For `CS(=O)(=O)c1nc(-c2ccccc2C#N)cc(C(F)(F)F)n1` [Compound 55, 2-(2-(methylsulfonyl)-6-(trifluoromethyl)pyrimidin-4-yl)benzonitrile], the EC50 was 1 to 20 µM. `COc1ccc(Cn2cc(-c3cc(C(F)(F)F)nc(S(C)(=O)=O)n3)ccc2=O)cc1OC` [Compound 127, 1-(3,4-dimethoxybenzyl)-5-(2-(methylsulfonyl)-6-(trifluoromethyl)pyrimidin-4-yl)pyridin-2 (1H)-one] gave an EC50 of 0.001 to 1 µM. `C=CS(=O)(=O)c1nc(-c2ccc(=O)n(Cc3ccc(OC)c(OC)c3)c2)cc(C(F)(F)F)n1` [Compound 142, 1-(3,4-dimethoxybenzyl)-5-(6-(trifluoromethyl)-2-(vinylsulfonyl)pyrimidin-4-yl)pyridin-2 (1H)-one] showed an EC50 of 1 to 10 µM. `COc1cccc(C[S+]([O-])c2nc(-c3ccc(=O)n(Cc4ccc(OC)c(OC)c4)c3)cc(C(F)F)n2)c1` (stereo not drawn) [Compound 173, 5-(6-(difluoromethyl)-2-((3-methoxybenzyl)sulfinyl)pyrimidin-4-yl)-1-(3,4-dimethoxybenzyl)pyridin-2 (1H)-one] showed an EC50 of 1 to 10 µM. With `COC(=O)c1ccccc1-c1cc(C(F)(F)F)nc([S+](C)[O-])n1` (stereo not drawn) [Compound 59, methyl 2-(2-(methylsulfinyl)-6-(trifluoromethyl)pyrimidin-4-yl)benzoate] the EC50 was 1 to 10 µM. `C[S+]([O-])c1nc(-c2ccc(=O)n(Cc3ccc4c(c3Br)OCO4)c2)cc(C(F)(F)F)n1` (stereo not drawn) [Compound 138, 1-((4-bromobenzo[d][1,3]dioxol-5-yl)methyl)-5-(2-(methylsulfinyl)-6-(trifluoromethyl)pyrimidin-4-yl)pyridin-2 (1H)-one] showed an EC50 of 0.001 to 1 µM. `COc1ccc(Cn2cc(-c3cc(C(F)(F)F)nc(S(=O)(=O)CCCCO)n3)ccc2=O)cc1OC` [Compound 276, 1-(3,4-dimethoxybenzyl)-5-(2-((4-hydroxybutyl)sulfonyl)-6-(trifluoromethyl)pyrimidin-4-yl)pyridin-2 (1H)-one] showed an EC50 of 0.001 to 1 µM. Compound `COc1ncccc1-c1cc(C(F)(F)F)nc([S+](C)[O-])n1` (stereo not drawn) [Compound 79, 4-(2-Methoxypyridin-3-yl)-2-(methylsulfinyl)-6-(trifluoromethyl)pyrimidine] has an EC50 of less than 100 µM. In the case of `Cc1cccc(-c2cc(C(F)(F)F)nc(S(C)(=O)=O)n2)c1` [Compound 47, 2-(methylsulfonyl)-4-(m-tolyl)-6-(trifluoromethyl)pyrimidine], the EC50 is reported as 1 to 10 µM. Work on `COc1ccc(Cn2cc(-c3cc(C)nc(S(C)(=O)=O)n3)cc(F)c2=O)cc1OC` [Compound 324, 1-(3,4-dimethoxybenzyl)-3-fluoro-5-(6-methyl-2-(methylsulfonyl)pyrimidin-4-yl)pyridin-2 (1H)-one] yielded an EC50 of 1 to 10 µM. `CS(=O)(=O)c1nc(-c2ccc(=O)n(Cc3ccc(N=[N+]=[N-])cc3)c2)cc(C(F)(F)F)n1` [Compound 123, 1-(4-azidobenzyl)-5-(2-(methylsulfonyl)-6-(trifluoromethyl)pyrimidin-4-yl)pyridin-2 (1H)-one] showed an EC50 of less than 100 µM. Compound `COc1ccc(Cn2cc(-c3cc(C(F)(F)F)nc(S(=O)(=O)CCCC(=O)N4CCOCC4)n3)ccc2=O)cc1OC` [Compound 156, 1-(3,4-dimethoxybenzyl)-5-(2-((4-morpholino-4-oxobutyl)sulfonyl)-6-(trifluoromethyl)pyrimidin-4-yl)pyridin-2 (1H)-one] has an EC50 of 0.001 to 1 µM. In the case of `C[S+]([O-])c1nc(-c2cccc(Oc3ccccc3)c2)cc(C(F)(F)F)n1` (stereo not drawn) [Compound 74, 2-(methylsulfinyl)-4-(3-phenoxyphenyl)-6-(trifluoromethyl)pyrimidine], the EC50 is reported as less than 100 µM.
